Assays:
[1] = test system: human lung cancer cells (H358); test: Lung cancer spheroid cell death test; assay type: cell-based; details: 24 hour exposure to increasing doses; spheroids
Procedure: (§1) The respective cells were individually cultured in a growth medium prepared using RPMI-1640 medium containing 11.1 mM D-glucose with 10% fetal bovine serum, 10 mM HEPES, 2 mM L-glutamine, 1 mM sodium pyruvate, 0.05 mM 2-mercaptoethanol, and Antibiotic-Antimycotic. These cells were maintained in T75 tissue culture flasks in a humidified incubator at 37° C. and 5% CO2. The media were changed on a third day after cell plating, and the cells were passaged on day 5 by trypsinization.
(§2) Custom-made micromolds with 100 μm diameter wells were loaded with the cells (U.S. Pat. No. 8,735,154, incorporated by reference herein). The media were changed every day by partial replacement. Cell aggregates were allowed to form in the micromolds for 72 hours and then were transferred to a 100 mm non-treated tissue culture dishes for 3 additional days. The spheroids were passed through 70 μm and 100 μm cell strainers (#3431751 and #43152, Corning, Tewksbury, Mass.) and maintained in HEPES Balanced Salt Solution comprised of: 20 mM HEPES, 114 mMNaCl, 4.7 mM KCl, 1.2 mM KH2PO4, 1.16 mM MgSO4, 2.5 mM CaCl2, 25.5 mM NaHCO3 and 0.2% bovine serum albumin (fatty acid free), pH 7.2.
The lymphomas treatment methods used were identical to those described in Example 2 relative to the pediatric leukemia cells, whereas the lung cancer treatment method was the same as described in Example 1.

[2] = test system: human ovarian cancer cells (A1847); test: Ovarian cancer spheroid cell death test; assay type: cell-based; details: 24 hour exposure to increasing doses; spheroids
Procedure: as §1, §2
(§3) The cells were treated and tested as set forth in Example 1.

[3] = test system: human prostate cancer cells (22rv1); test: Prostate cancer spheroid cell death test; assay type: cell-based; details: 24 hour exposure to increasing doses; spheroids
Procedure: as §1, §2, §3

ovarian cancer cells = details: low doses of doxorubicin alone (up to 0.158, unit not given)
Procedure: In this test, the synergism of GZ17-6.02 with doxorubicin (a common chemotherapy drug) was tested on ovarian cancer cells. In this test, increasing doses of doxorubicin were administered to ovarian cancer spheroids and cell deaths were measured, as described in Example 1. The protocol involved testing doxorubicin alone at various dosages (FIG. 8, doxorubicin alone—closed circles), with comparative tests using the various dosages of doxorubicin in combination with either 0.2 mg/mL (FIG. 8 open circles) or 0.4 mg/mL (FIG. 8 closed triangles) GZ17-6.02. Additionally, the induced cell death results from use of 0.2 mg/mL GZ17-6.02 alone (FIG. 8, line A) and 0.4 mg/mL GZ17-6.02 alone (FIG. 8, line B) were determined.

Row | SMILES | cell death (number of live cells) [1] | cell death (number of live cells) [2] | cell death (number of live cells) [3] | cell death, doxorubicin alone (ovarian cancer cells)
1 | COc1cc(C=O)ccc1O [vanillin] | demonstrated anticancer effects | demonstrated anticancer effects | demonstrated anticancer effects | –
2 | COc1ccc(CO)cc1O [isovanillyl alcohol] | demonstrated anticancer effects | demonstrated anticancer effects | demonstrated anticancer effects | –
3 | COc1ccc2c3c([nH]c2c1)C(C)=NCC3 [harmaline] | demonstrated anticancer effects | demonstrated anticancer effects | demonstrated anticancer effects | –
4 | Cc1nccc2c1[nH]c1cc(O)ccc12.Cl [harmole hydrochloride] | demonstrated anticancer effects | demonstrated anticancer effects | demonstrated anticancer effects | –
5 | CC1=NCCc2c1[nH]c1cc(O)ccc21.Cl [harmalol hydrochloride] | demonstrated anticancer effects | demonstrated anticancer effects | demonstrated anticancer effects | –
6 | COc1cccc(C=O)c1O [O -vanillin] | demonstrated anticancer effects | demonstrated anticancer effects | demonstrated anticancer effects | –
7 | COc1cccc2c1C(=O)c1c(O)c3c(c(O)c1C2=O)C[C@@](O)(C(=O)CO)C[C@@H]3O[C@H]1C[C@H](N)[C@H](O)[C@H](C)O1 [doxorubicin] | – | – | – | ineffective
8 | COc1ccc2c3c([nH]c2c1)[C@@H](C)NCC3 [tetrahydro-harmine] | demonstrated anticancer effects | demonstrated anticancer effects | demonstrated anticancer effects | –
9 | COc1ccc(C(=O)O)cc1O [isovanillic acid] | demonstrated anticancer effects | demonstrated anticancer effects | demonstrated anticancer effects | –
